Tested on: vessels from preeclamptic rats / normal pregnant rats
Assay: Perfusion of individual vessels dissected from rat models of preeclampsia and from normal pregnant rats with marinobufagenin
From the text: It is elevated substantially more in preeclamptic rats.

For `C[C@]12CC[C@H](O)C[C@@]1(O)CC[C@@H]1[C@@H]2CC[C@]2(C)[C@@H](c3ccc(=O)oc3)C[C@H]3O[C@]132` [marinobufagenin], the “constriction of perfused vessels” value (vessels from normal pregnant animals or rats perfused with marinobufagenin) was “do not constrict” and the “constriction of perfused vessels as compared with the controlled circumstance (average)” value (vessels from preeclamptic rats perfused with marinobufagenin) was “about 36%”.
